# Results published in patent US9301942B2, “Use of icaritin for the preparation of composition for treating cancer” (priority 2013, dated 2016).
# Key:
# [1] = tested on: patients suffering from advanced solid tumors; assay: Phase Ib fixed-dose study, (serious) adverse events; assay type: in vivo, humans
# Protocol: (§1) 1.1 Phase 1a: Dose-escalating study with patients suffering from advanced breast cancer. Cohorts of 3-6 patients received one dose, and 6 planned doses of 50, 100, 200, 400, 800, 1600 mg/day were orally administered to the patients over at least a 28-day cycle. 1.2 Phase 1b: Fixed doses of Icaritin with 600 mg and 800 mg BID (Bis in diem) were administered to patients suffering from advanced solid tumors for at least a 28 day cycle. 2. Major Inclusion Criteria
# (§2) Phase Ib: Advanced cancer patients without standard treatment, especially HCC patients with Child-Pugh Class A or B liver function, were selected.
# (§3) Phase Ib: Patients with the following conditions were excluded: ECOG score≧2, ANC≦1500 cells/μL, platelet≦80,000 cells/μL, Hb≦9.0 g/dL, bilirubin>1.5×ULN, AST or ALT>5×ULN, or albumin<2.8 g/dL.
# (§4) The patients with the following conditions were also excluded: prior systemic chemotherapy, chemoembolization, percutaneous ethanol injection, or surgery for HCC<30 days.
# [2] = tested on: patients suffering from advanced breast cancer; assay: Phase Ia dose-escalating study, tumor assessment every 28 days; assay type: in vivo, humans
# Protocol: (§5) The clinical trial includes two phases: Phase I aims to seek the maximum tolerated dose in the patients. Phase II aims to obtain the administration dosage to the patient treatments.
# as §1
# (§6) Phase Ia: Females of age≧18 years old and ≦65 years old, suffering from advanced breast cancer which was not responsive to previous standard treatments, were selected based on Eastern Cooperative Oncology Group (ECOG) score≦1.
# Tumor assessment was performed every 28 days. […] Further, 1 patient completed 9 cycles.
# HCC patients = assay: Phase Ib efficacy and survival of HCC patients; assay type: in vivo, humans
# From the text: “CR” means a complete response was achieved after treatment, that is, all signs of cancer in the patient disappeared in response to the treatment.
# “SD” means a stable disease state was seen, that is, at the end of the treatment, the disease state of the patient was little changed from pre-treatment conditions.
# “OS” means overall survival days of patients. Overall survival is an indication of the proportion of people within a group who are expected to be alive after a specified time, taking into account death due to any cause, both related and unrelated to the cancer in question.
# “TTP” means time to progression in the patients, that is, the length of time from the date of diagnosis or the start of treatment for a disease until the disease starts to get worse or spread to other parts of the body. In a clinical trial, measuring the time to progression is one way to see how well a new treatment works.
# as §1, §2, §3, §4
# [3] = Phase Ia pharmacokinetics, plasma concentration before or after meal; assay type: in vivo, humans; settings: for half-life: female, human, plasma, oral
# Protocol: as §1
# [4] = tested on: patients suffering from advanced breast cancer; assay: Phase Ia dose-escalating study, adverse events; assay type: in vivo; settings: up to 1600 mg/d
# From the text: “Maximum Tolerated Dose (MTD)” means the highest dose of a radiological or pharmacological treatment that will produce the desired effect without unacceptable toxicity. In the present invention, MTD is one dose level below the cohort in which 2 patients experienced a drug-related dose limited toxicity in cycle 1.
# as §5, §1, §6
# [5] = 600 mg bid (n = 12), based on evaluable patients, assessment every 2 cycles
# [6] = 800 mg bid (n = 5), based on evaluable patients, assessment every 2 cycles
compound,measurement,setting,value
COc1ccc(-c2oc3c(CC=C(C)C)c(O)cc(O)c3c(=O)c2O)cc1 [Icaritin],G2 drug-related adverse events,[1]; 600 mg and 800 mg BID,no G2 drug-related adverse events was observed
same,"Serious adverse event Cardiac sudden death, No",[1]; dose 600,1
same,"Serious adverse event Cardiac sudden death, outcomes",[1]; dose 600,death
same,"Serious adverse event Cardiac sudden death, relationship",[1]; dose 600,Unlikely related
same,"Serious adverse event Dyspnea, No",[1]; dose 600,2
same,"Serious adverse event Dyspnea, outcomes",[1]; dose 600,Death
same,"Serious adverse event Dyspnea, relationship",[1]; dose 600,Not related
same,"Serious adverse event Liver abscess, No",[1]; dose 600,1
same,"Serious adverse event Liver abscess, outcomes",[1]; dose 600,unresolved
same,"Serious adverse event Liver abscess, relationship",[1]; dose 600,Not related
same,"Serious adverse event epilepsy, No",[1]; dose 600,1
same,"Serious adverse event epilepsy, outcomes",[1]; dose 600,unresolved
same,"Serious adverse event epilepsy, relationship",[1]; dose 600,Not related
same,"Serious adverse event GI bleeding, No",[1]; dose 600/800,2
same,"Serious adverse event GI bleeding, outcomes",[1]; dose 600/800,resolved/death
same,"Serious adverse event GI bleeding, relationship",[1]; dose 600/800,Not related
same,"Serious adverse event Sepsis, No",[1]; dose 800,1
same,"Serious adverse event Sepsis, outcomes",[1]; dose 800,resolved
same,"Serious adverse event Sepsis, relationship",[1]; dose 800,Not related
same,"Serious adverse effect of pneumonia, relationship to drug",[1]; only one observed during study,not considered drug-related
same,Tumor response (CR or PR),"[2]; Phase Ia, 50-1600 mg/day oral, assessment every 28 days",No CR or PR was observed
same,Anti-tumor effect in advanced breast cancer,[2]; overall conclusion,potential anti-tumor effect
same,"Best response PD, patients (%)",HCC patients; [5],4 (40%) patients (%)
same,"Best response PR, patients (%)",HCC patients; [5],1 (10%) patients (%)
same,"Best response SD, patients (%)",HCC patients; [5],5 (50%) patients (%)
same,"Best response PD, patients (%)",HCC patients; [6],3 (60%) patients (%)
same,"Best response PR, patients",HCC patients; [6],0 patients
same,"Best response SD, patients",HCC patients; [6],0 patients
same,Median OS of HCC patients,"HCC patients; Phase Ib, 17 patients analyzed, 95% CI:32-265, FIG. 7",113 days
same,Median TTP of HCC patients,"HCC patients; Phase Ib, FIG. 6",112 days
same,"AFP of HCC patient, as treatment progressed","HCC patients; after decrease under treatment, FIG. 5",3.53 ng/mL
same,"Abdominal lymph nodes, B-mode ultrasound image of an HCC patient","HCC patients; after eight months of treatment, FIG. 4a/4b",complete disappearance of abdominal lymph nodes
same,"AFP of HCC patient, start value","HCC patients; before the decrease, FIG. 5",5216 ng/mL
same,Efficacy in hepatocellular cancer,HCC patients; overall conclusion,promising efficacy
same,Plasma concentration after a meal versus fasting,"[3]; 800 mg once daily, FIG. 1",higher
same,Absorption saturation,[3]; 1600 mg,absorption saturation occurs
same,Plasma concentration after a meal versus fasting,"[3]; 1600 mg once daily, FIG. 2",higher
same,Plasma concentration versus dose,"[3]; 400, 800 and 1600 mg once daily after meal, FIG. 3",increases with dose but not in a completely linear pattern
same,"Bioavailability, post-meal (fed) dosing versus fasting dosing",[3]; 800 and 1600 mg,better bioavailability in fed dosing
same,half-life,[3]; 800 mg Icaritin BID,4.8 ± 2.7 h
same,half-life,[3]; 1600 mg Icaritin BID,4.5 ± 0.8 h
same,Maximum plasma concentration at 800 mg compared with 1600 mg,"[3]; once daily after meal, FIG. 3",close to the plasma concentration of 1600 mg Icaritin
same,Tolerability in patients with advanced malignancies,[4],well tolerated
same,Dose tolerated toxicity,[4]; this phase of clinical trial,no dose tolerated toxicity was found
